Consider four compounds from PMC9321742 (Viruses, 2022).

One data set deals with SARS-CoV-2 delta. Description: microbe, parasite or virus in culture. Format: cell-based. The conditions noted are these: VERO E6, plus 0.5 µM P-gp inhibitor CP-100356, MOI 0.005, 72 h, read-out: IC50 Delta Mean ± SD.
The next data set deals with SARS-CoV-2 omicron BA.1. The experiment in a line: microbe, parasite or virus in culture. Format: cell-based. The following applies: read-out: IC50 BA.1 Mean ± SD.
The subject of a further data set is SARS-CoV-2 omicron BA.2. The experiment in a line: microbe, parasite or virus in culture. Format: cell-based. The conditions noted are these: read-out: IC50 BA.2 Mean ± SD.
A short description of another data set: in vitro. The conditions noted are these: African green monkey.
The mark [1] stands for this setting: Severe acute respiratory syndrome coronavirus 2, Vero C1008.
Where [2] appears, read: Severe acute respiratory syndrome coronavirus 2, Vero C1008, VERO E6, plus 0.5 µM P-gp inhibitor CP-100356, MOI 0.005, 72 h.

Where two headings read alike, the source gives them in different places.

Turning to `O=c1nc(NO)ccn1[C@@H]1O[C@H](CO)[C@@H](O)[C@H]1O` [EIDD-1931], the IC50 turned out to be 1500 ± 700 nM in the data set with SARS-CoV-2 delta, 1000 ± 500 nM in the data set with SARS-CoV-2 omicron BA.1 and 800 ± 10 nM with SARS-CoV-2 omicron BA.2. Moreover, in the data set on VERO E6 cells, the CC50 stood at 43300 ± 6000 nM.
As to `CC(C)(C)[C@H](NC(=O)C(F)(F)F)C(=O)N1C[C@H]2[C@@H]([C@H]1C(=O)N[C@H](C#N)C[C@@H]1CCNC1=O)C2(C)C` [Nirmatrelvir], the IC50 was found to be 60 ± 10 nM with SARS-CoV-2 delta (setting [1]), 40 ± 20 nM in the data set on SARS-CoV-2 omicron BA.1 (setting [2]) and 40 ± 10 nM in the data set with SARS-CoV-2 omicron BA.2 (setting [2]). The CC50 is 40700 ± 4400 nM in the data set with VERO E6 cells (African green monkey) and 69600 ± 1000 nM in the data set “in vitro”.
Turning to `CCC(CC)COC(=O)[C@H](C)N[P@](=O)(OC[C@H]1O[C@@](C#N)(c2ccc3c(N)ncnn23)[C@H](O)[C@@H]1O)Oc1ccccc1` [Remdesivir], the IC50 in the data set with SARS-CoV-2 delta (setting [1]) amounted to 110 ± 80 nM; with SARS-CoV-2 omicron BA.1 (setting [2]), 50 ± 40 nM; in the data set on SARS-CoV-2 omicron BA.2 (setting [2]), 80 ± 10 nM.
As for CP-100356 hydrochloride, the “Decrease of cell viability” value in the data set with VERO E6 cells came to 20%.
